The results in this text go back to paper PMC12947280, “An Antifungal with a Novel Mechanism of Action Discovered via Resistance Gene-Guided Genome Mining” (ACS Central Science, 2026).

For this assay, the target named is T1, S. cerevisiae ALS P192S (Saccharomyces cerevisiae, UniProt P07342, P192S).
T1 construct: His6 (followed by a TEV protease site, pET28a) (N); made in house; host or cells: E. coli (inferred from the ScALS method)
Kind of assay: biochemical. The class given is biochemical. As to the method:
ALS biochemical assay (ScALS)
Saccharomyces cerevisiae acetohydroxyacid synthase (ScALS) lacking the N-terminal […]
Escherichia coli as an N-terminally His6-tagged protein. Assays (50 µL final volume) contained […]
adenine dinucleotide, 10 mM MgCl2, 1 mM DTT, 1% DMSO (± inhibitor) in 500 mM K2HPO4 buffer at pH 7.5. Following a 30 min pre-incubation of the enzyme and inhibitor in the reaction mixture at room temperature, reactions were initiated with the addition of pyruvate. ScALS assays were carried out at 30 °C for 60 min. The reaction was quenched with the addition of 5 µL of 10% H2SO4 (v/v in deionized water). Reactions were incubated at 60 °C at 800 rpm in an […]
to acetoin. Subsequently, the concentration of acetoin was determined by the addition of 7.5 µL 6 M NaOH, 25 µL 0.5% creatine (w/v in deionized water), and 25 µL 4% 1-naphthol (w/v in 2.5 M NaOH). This mixture was incubated at 60 °C at 800 rpm in an incubating microplate shaker for […]
40 µL of this reaction mixture was transferred to a half area UV-star 96-well plate (Grenier) and the absorbance at 525 nm was measured on a Spark multimode plate reader (Tecan). The percent inhibition was calculated by the comparison of the signal to DMSO (0% […]
IC50 values were calculated from the dose response curves using Prism 9 (four parameter, variable slope). […]
Expression and purification of ScALS
S. cerevisiae ILV2 (the gene or ScALS) lacking the N-terminal mitochondrial-localization tag

T1 sequence (P07342 58-687 P192S): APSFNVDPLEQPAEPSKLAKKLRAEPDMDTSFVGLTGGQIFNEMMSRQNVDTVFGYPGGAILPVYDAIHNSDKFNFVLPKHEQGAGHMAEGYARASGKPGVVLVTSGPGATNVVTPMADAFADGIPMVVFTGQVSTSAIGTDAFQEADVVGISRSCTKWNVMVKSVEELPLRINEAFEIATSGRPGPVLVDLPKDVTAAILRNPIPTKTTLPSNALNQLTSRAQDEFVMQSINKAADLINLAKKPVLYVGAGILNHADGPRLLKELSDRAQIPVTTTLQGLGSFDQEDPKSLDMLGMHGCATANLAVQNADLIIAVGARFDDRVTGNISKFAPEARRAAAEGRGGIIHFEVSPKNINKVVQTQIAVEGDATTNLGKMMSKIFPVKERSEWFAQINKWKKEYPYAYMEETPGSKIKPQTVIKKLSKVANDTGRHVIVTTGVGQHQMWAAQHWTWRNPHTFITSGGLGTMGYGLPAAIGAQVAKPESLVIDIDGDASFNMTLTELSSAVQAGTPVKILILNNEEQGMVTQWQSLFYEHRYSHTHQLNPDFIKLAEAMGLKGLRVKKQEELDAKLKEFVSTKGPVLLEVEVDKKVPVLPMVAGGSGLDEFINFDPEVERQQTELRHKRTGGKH

On to `CCCC1C(C)=CC2CC=CC3(C)C2C1C(=O)C31C(=O)NC(CCCO)C1=O` (centres unmarked) [compound 1], for which the IC50 amounted to 66 ± 9 nM and the “shift in potency, P192S mutant ScALS compared to wild-type ScALS” value was 4 fold.

By IC50 is commonly meant the concentration that gives 50% inhibition. A high value points to lower potency.
